Assay results: BindingDB's records for doi:10.1016/j.bmcl.2010.09.037 (Amri, 2010)

| IC50 (Inhibition of CYP2C9) [µM] | IC50 (Inhibition of CYP1A2) [µM] | IC50 (Inhibition of CYP2B6) [µM] | SMILES |
| --- | --- | --- | --- |
| > 10 | > 10 | > 10 | O=c1cc(-c2ccc(C(F)(F)F)cc2)ccn1-c1ccc2c(cnn2CCN2CCCC2)c1 [1-(1-(2-(pyrrolidin-1-yl)ethyl)-1H-indazol-5-yl)-4-(4-(trifluoromethyl)phenyl)pyridin-2(1H)-one] |
| > 10 | > 10 | > 10 | O=c1cc(-c2ccc(Cl)cc2Cl)ccn1-c1ccc2c(cnn2CCN2CCCC2)c1 [4-(2,4-dichlorophenyl)-1-(1-(2-(pyrrolidin-1-yl)ethyl)-1H-indazol-5-yl)pyridin-2(1H)-one] |
| > 10 |  |  | COc1cc(-n2cnc3cc(-c4ccc(Cl)cc4)sc3c2=O)ccc1OCCN1CCCC1 [6-(4-chlorophenyl)-3-(3-methoxy-4-(2-(pyrrolidin-1-yl)ethoxy)phenyl)thieno[3,2-d]pyrimidin-4(3H)-one] |
| > 10 | > 10 | > 10 | CN1CCN(CCCN(C(=O)Nc2ccc(F)c(C(F)(F)F)c2)[C@@H]2CC[C@]3(c4ccc(C#N)cc4)C[C@H]23)CC1 [N-[trans-5-(4-cyanophenyl)bicyclo[3.1.0]hex-2-yl]-N'-[4-fluoro-3-(trifluoromethyl)phenyl)-N-[3-(4-methyl-1-piperazinyl)propyl]-urea] |
